Test system: 565726-208-R1-J5-PDC complex spheroids, growth inhibition
Experiment: Anticancer human tumor 565726-208-R1-J5-PDC patient-derived pancreatic adenocarcinoma cell line growth inhibition [RAS]
Settings: for IC50: curve of first compound; for viability, T/C: stronger effect = lower value; active = viability on the fitted dose curve at most 10% of control; inactive = the rest
Outline: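 Agents were tested in combination matrices in half-log decrements from a top concentration at or near clinical Cmax (10 microM if undetermined). Targets were multi-cell spheroids of tumour lines plus HUVEC and MSC stromal cells.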
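Also: spheroids exposed to compounds for seven days before readout.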
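For viability, T/C in this document: 100% = DMSO vehicle control viability.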

CCc1c2c(nc3ccc(O)cc13)-c1cc3c(c(=O)n1C2)COC(=O)[C@]3(O)CC + C=CC(=O)N1CCN(c2nc(OCC3CCCN3C)nc3c(F)c(-c4nc(N)cc(C)c4C(F)(F)F)c(Cl)cc23)C(C)C1
4.93 nM: IC50 (second compound 0.00316 µM)
4.61 nM: IC50 (second compound 0.01 µM)
5.78 nM: IC50 (second compound 0.0316 µM)
active: viability, T/C (second compound 0.00316 µM, first compound 0.3 µM) 7.24% | viability, T/C (second compound 0.0316 µM, first compound 0.3 µM) 8.94%
5.53 nM: IC50 (second compound 0.1 µM)
5.1 nM: IC50 (second compound 1 µM)
3.96 nM: IC50 (second compound 0.316 µM)
inactive: viability, T/C (second compound 0.00316 µM, first compound 0.000949 µM) 88.2% | viability, T/C (second compound 0.00316 µM, first compound 0.003 µM) 61.3% | viability, T/C (second compound 0.00316 µM, first compound 0.00949 µM) 34.5% | viability, T/C (second compound 0.00316 µM, first compound 0.03 µM) 23.3% | viability, T/C (second compound 0.00316 µM, first compound 0.0949 µM) 15.2% | viability, T/C (second compound 0.01 µM, first compound 0.000949 µM) 98.5% | viability, T/C (second compound 0.01 µM, first compound 0.003 µM) 58.2% | viability, T/C (second compound 0.01 µM, first compound 0.00949 µM) 33.8% | viability, T/C (second compound 0.01 µM, first compound 0.03 µM) 24.9% | viability, T/C (second compound 0.01 µM, first compound 0.0949 µM) 14.3% | viability, T/C (second compound 0.01 µM, first compound 0.3 µM) 8.62% | viability, T/C (second compound 0.0316 µM, first compound 0.000949 µM) 121% | viability, T/C (second compound 0.0316 µM, first compound 0.003 µM) 68.4% | viability, T/C (second compound 0.0316 µM, first compound 0.00949 µM) 35.4% | viability, T/C (second compound 0.0316 µM, first compound 0.03 µM) 21.1% | viability, T/C (second compound 0.0316 µM, first compound 0.0949 µM) 13.2% | viability, T/C (second compound 0.1 µM, first compound 0.000949 µM) 134% | viability, T/C (second compound 0.1 µM, first compound 0.003 µM) 64.1% | viability, T/C (second compound 0.1 µM, first compound 0.00949 µM) 39.3% | viability, T/C (second compound 0.1 µM, first compound 0.03 µM) 18.2% | viability, T/C (second compound 0.1 µM, first compound 0.0949 µM) 15.1% | viability, T/C (second compound 0.1 µM, first compound 0.3 µM) 8.7% | viability, T/C (second compound 0.316 µM, first compound 0.000949 µM) 113% | viability, T/C (second compound 0.316 µM, first compound 0.003 µM) 53% | viability, T/C (second compound 0.316 µM, first compound 0.00949 µM) 33.1% | viability, T/C (second compound 0.316 µM, first compound 0.03 µM) 21.1% | viability, T/C (second compound 0.316 µM, first compound 0.0949 µM) 13.3% | viability, T/C (second compound 0.316 µM, first compound 0.3 µM) 8.96% | viability, T/C (second compound 1 µM, first compound 0.000949 µM) 130% | viability, T/C (second compound 1 µM, first compound 0.003 µM) 59.1% | viability, T/C (second compound 1 µM, first compound 0.00949 µM) 35% | viability, T/C (second compound 1 µM, first compound 0.03 µM) 32.9% | viability, T/C (second compound 1 µM, first compound 0.0949 µM) 18.6% | viability, T/C (second compound 1 µM, first compound 0.3 µM) 11.7%

Nc1ccn(C2OC(CO)C(O)C2(F)F)c(=O)n1 (centres undefined) + C=CC(=O)N1CCN(c2nc(OCC3CCCN3C)nc3c(F)c(-c4nc(N)cc(C)c4C(F)(F)F)c(Cl)cc23)C(C)C1
230 nM: IC50 (second compound 0.1 µM)
inactive: viability, T/C (second compound 0.00316 µM, first compound 0.00316 µM) 89.3% | viability, T/C (second compound 0.00316 µM, first compound 0.01 µM) 151% | viability, T/C (second compound 0.00316 µM, first compound 0.0316 µM) 76.5% | viability, T/C (second compound 0.00316 µM, first compound 0.1 µM) 54.6% | viability, T/C (second compound 0.00316 µM, first compound 0.316 µM) 52.6% | viability, T/C (second compound 0.00316 µM, first compound 1 µM) 39% | viability, T/C (second compound 0.01 µM, first compound 0.00316 µM) 113% | viability, T/C (second compound 0.01 µM, first compound 0.01 µM) 149% | viability, T/C (second compound 0.01 µM, first compound 0.0316 µM) 84.9% | viability, T/C (second compound 0.01 µM, first compound 0.1 µM) 48% | viability, T/C (second compound 0.01 µM, first compound 0.316 µM) 50.5% | viability, T/C (second compound 0.01 µM, first compound 1 µM) 44.8% | viability, T/C (second compound 0.0316 µM, first compound 0.00316 µM) 148% | viability, T/C (second compound 0.0316 µM, first compound 0.01 µM) 160% | viability, T/C (second compound 0.0316 µM, first compound 0.0316 µM) 77.1% | viability, T/C (second compound 0.0316 µM, first compound 0.1 µM) 59.4% | viability, T/C (second compound 0.0316 µM, first compound 0.316 µM) 48.9% | viability, T/C (second compound 0.0316 µM, first compound 1 µM) 49% | viability, T/C (second compound 0.1 µM, first compound 0.00316 µM) 156% | viability, T/C (second compound 0.1 µM, first compound 0.01 µM) 134% | viability, T/C (second compound 0.1 µM, first compound 0.0316 µM) 89.5% | viability, T/C (second compound 0.1 µM, first compound 0.1 µM) 58.1% | viability, T/C (second compound 0.1 µM, first compound 0.316 µM) 47.5% | viability, T/C (second compound 0.1 µM, first compound 1 µM) 46.3% | viability, T/C (second compound 0.316 µM, first compound 0.00316 µM) 139% | viability, T/C (second compound 0.316 µM, first compound 0.01 µM) 134% | viability, T/C (second compound 0.316 µM, first compound 0.0316 µM) 72.7% | viability, T/C (second compound 0.316 µM, first compound 0.1 µM) 46.4% | viability, T/C (second compound 0.316 µM, first compound 0.316 µM) 52.7% | viability, T/C (second compound 0.316 µM, first compound 1 µM) 41.5% | viability, T/C (second compound 1 µM, first compound 0.00316 µM) 153% | viability, T/C (second compound 1 µM, first compound 0.01 µM) 142% | viability, T/C (second compound 1 µM, first compound 0.0316 µM) 82.3% | viability, T/C (second compound 1 µM, first compound 0.1 µM) 58.3% | viability, T/C (second compound 1 µM, first compound 0.316 µM) 55.3% | viability, T/C (second compound 1 µM, first compound 1 µM) 45.6%
88.8 nM: IC50 (second compound 0.316 µM)
93.4 nM: IC50 (second compound 0.01 µM)
1000 nM: IC50 (second compound 1 µM)
94.9 nM: IC50 (second compound 0.00316 µM)
> 1000 nM: IC50 (second compound 0.0316 µM)

— PubChem BioAssay AID2060899 (Molecular Pharmacology Branch, DTP, NCI, 2025)
